Laboratory results reported in article PMC4364779, “IMD-4690, a Novel Specific Inhibitor for Plasminogen Activator Inhibitor-1, Reduces Allergic Airway Remodeling in a Mouse Model of Chronic Asthma via Regulating Angiogenesis and Remodeling-Related Mediators” (PLoS ONE, 2015).

Columns and labels:
[1] = molecular target: human PAI-1 (Homo sapiens, UniProt P05121); assay: Direct tPA assay of PAI-1 activity (fluorescent substrate Pyr-Gly-Arg-MCA); assay type: biochemical; details: recombinant tPA and PAI-1, read-out: IC50 of human PAI-1 inhibition
Protocol: Inhibitory effect of IMD-4690 on the activity of PAI-1 was measured by the direct tPA assay. Briefly, recombinant tPA and PAI-1 was mixed with IMD-4690, and then tPA substrate with fluorescent pigment (Pyr-Gly-Arg-MCA) was added in this mixture and incubated. The enzymatic activity was calculated by measuring the fluorescence. The inhibitory activity of IMD-4690 on other enzymes was measured with the similar method.

[2] = test system: chronic allergen exposure model of bronchial asthma in mice; assay: Mediators in lung homogenates (ELISA/activity kits), chronic Dp exposure asthma model; assay type: in vivo, mouse
Protocol: (§1) All mice were sensitized on days 0 and 7 by intraperitoneal injections of 10 μg of Dp dissolved in 500 μL saline and mixed with 1mg of Alum (Sigma-Aldrich Japan). Dp-sensitized mice were challenged intranasally with 10 μg (10 μL) Dp in 70 μL saline on alternate days, 3 days per week, from days 14 to 67. The mice were also treated intraperitoneally with IMD-4690 (10 mg/kg) (Dp/IMD group) or CMC alone (Dp/CMC group) at the same day with Dp challenge. As a control, mice were challenged with saline and given CMC during this period (control/CMC group) (Fig. 1A). Each experiment was performed using six mice per group.
The right lungs were frozen until analyzed. Frozen tissue were solubilized by homogenization in lysis buffer (Cell Signaling Technology, Inc., Danvers, Mass., USA) containing 1 tablet of Complete Protease Inhibitor Cocktail Tablets, EDTA-free (Santa Cruz Biotechnology, Inc., Santa Cruz, CA, USA), per 25 mL of buffer by using an Ultramicro homogenizer set (I.S.O.,Inc., Yokohama, Japan). Samples of the homogenate were centrifuged at 15,000 rpm for 10 min. The supernatants were stored at -80°C.
Protein concentrations were determined by the BCA method (Pierce, Rockford, IL, USA). Cytokines, growth factors, enzymes, and serum IgE were determined using commercial ELISA kits. ELISA kits and their sensitivities were as follows: IL-4, -5, -12, -13, TNF-α, IFN-γ, VEGF, TGF-β, total MMP-9, and TIMP-1 (R&D Systems, Minneapolis, MN, USA), with sensitivities of 2, 7, 2.5, 1.5, 5.1, 2, 3, 1.7, 7, and 1.4 pg/mL, respectively; active and total PAI-1 (Innovative Research Inc., Sarasota, FL, USA) with sensitivities of 20 and 32 pg/mL; active MMP-9 (MMP-9 Biotrak Activity Assay, GE Healthcare, Buckinghamshire, UK) with a sensitivity of 0.5 ng/mL; HGF (Rat HGF determination kit by EIA, Institute of Immunology Co., Ltd., Tokyo, Japan) with a sensitivity of 0.4 ng/mL; and serum IgE (ELISA mouse IgE kit, Seikagaku Biobussiness Corp., Tokyo, Japan) with a sensitivity of 0.5 ng/mL.

[3] = test system: chronic allergen exposure model of bronchial asthma in mice; assay: Lung histopathology and morphological analyses, chronic Dp asthma model; assay type: in vivo, mouse
Protocol: as §1
The lung tissues were harvested, fixed in 10% formalin, and embedded in paraffin. Three-micrometer-thick sections were stained with Giemsa, Periodic acid-Schiff (PAS) or Azan Mallory.
Sections of lung tissue were stained immunohistochemically to detect α-smooth muscle actin (SMA), platelet endothelial cell adhesion molecule-1 (PECAM-1)/CD31. Mouse monoclonal anti-smooth muscle (1:800) (Thermo Fisher Scientific Inc., Fremont, CA, USA), or ready-to-use mouse monoclonal CD31 (GeneTex Inc., Irvine, CA, USA) was used as a primary antibody. For immunohistochemical staining, the VECTASTAIN ABC Kit (Vector Laboratories) and the Vector M.O.M. Immunodetection Kit (Vector Laboratories) were used according to the manufacturers’ protocols. Diaminobenzidine was used as a substrate for the immunoperoxidase reaction. Sections were lightly counterstained with hematoxylin and analyzed by bright-field microscopy.
An OLYMPUS BX61 microscope (Olympus, Tokyo, Japan) with Scion Image software was used for the morphological analysis. Eosinophils were counted according to a previously described method. The thickness of subepithelial fibrosis and smooth muscle layer were analyzed as follows. The area of subepithelial fibrosis (stained blue) and smooth muscle layer (α-SMA positive) around a bronchus was measured. The average thickness was determined by the area of the positive layer divided by the length of the internal circumference of the area. The mean values for thickness were calculated for 8–10 bronchi per left lung lobe.
To quantify the microvessel density, the number of CD31-positive blood vessels per field was counted in 5 random fields in each sample.

[4] = test system: chronic allergen exposure model of bronchial asthma in mice; assay: Total lung collagen (Sircol assay), chronic Dp asthma model; assay type: in vivo, mouse; details: day 70, 10 mg/kg i.p., vs Dp/CMC mice
Protocol: as §1
The left lungs were harvested on day 70 and used for collagen assays. Total lung collagen was determined using a Sircol Collagen Assay kit (Biocolor Ltd, Belfast, Northern Ireland) according to the manufacturer’s instructions.

[5] = Body weight and adverse effects in Dp-sensitized mice; assay type: in vivo, mouse; details: 10 mg/kg i.p.
Source text: Six-week-old female BALB/c mice (15–20 g) were purchased from CLEA Japan Inc. (Tokyo, Japan). Mice were maintained in the animal facility of the University of Tokushima according to the guidelines of the ethics committee of our university. The present study was approved by Institutional Animal Care and Use Committee of the University of Tokushima (Permission Number: 11134). Mice were housed under specific pathogen-free conditions with 12-h light/dark cycle in a temperature-controlled room with free access to food and water. Mice were monitored weekly for body weight and daily for food and water intake and assessed visually for signs of clinical disease including inactivity, labored respiration and ruffled fur.
as §1

[6] = BALB/c mice, Dp challenge 8 weeks, 10 mg/kg i.p., vs Dp/CMC mice
[7] = Dp/IMD mice (10 mg/kg i.p.) vs Dp/CMC mice
[8] = ELISA, 10 mg/kg i.p., vs Dp/CMC mice

Sequence of human PAI-1 (P05121 24-402): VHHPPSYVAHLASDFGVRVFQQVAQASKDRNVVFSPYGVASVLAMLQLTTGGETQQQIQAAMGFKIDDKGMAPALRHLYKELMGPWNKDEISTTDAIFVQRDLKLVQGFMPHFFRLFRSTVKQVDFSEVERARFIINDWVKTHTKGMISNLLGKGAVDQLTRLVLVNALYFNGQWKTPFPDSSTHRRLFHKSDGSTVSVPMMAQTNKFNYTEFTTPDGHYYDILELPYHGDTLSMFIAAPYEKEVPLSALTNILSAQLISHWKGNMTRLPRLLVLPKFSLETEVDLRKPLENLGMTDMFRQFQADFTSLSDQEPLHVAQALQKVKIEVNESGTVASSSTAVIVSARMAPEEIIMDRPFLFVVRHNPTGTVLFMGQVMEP

IC50 [1]: 1100 nM
Structure (SMILES): CC(C)(C)c1ccc(Oc2cc(-c3ccc(OC(F)(F)F)cc3)ccc2OCC(=O)O)cc1 [IMD-4690, 2-[[3-(4-tert-Butylphenoxy)-4'-(trifluoromethoxy) [1,1'-biphenyl]-4-yl]oxy] acetic acid]
IFN-γ production in lung homogenates ([2]; 10 mg/kg i.p., vs Dp/CMC mice): inhibited | IL-4 level in lung homogenates ([2]; 10 mg/kg i.p., vs Dp/CMC mice): significantly decreased | IL-5 level in lung homogenates ([2]; 10 mg/kg i.p., vs Dp/CMC mice): significantly decreased | IL-13 level in lung homogenates ([2]; 10 mg/kg i.p., vs Dp/CMC mice): significantly decreased | Ratio of active MMP-9/TIMP-1 in lung homogenates ([2]; 10 mg/kg i.p., vs Dp/CMC mice): significantly restored | TNF-α production in lung homogenates ([2]; 10 mg/kg i.p., vs Dp/CMC mice): inhibited | Level of active PAI-1 in lung homogenates [2, 6]: significantly reduced | Level of total PAI-1 in lung homogenates [2, 6]: significantly reduced | HGF levels in lung homogenates [2, 7]: significantly higher | Proportion of active PAI-1 as a percentage of the total PAI-1 in lung homogenates [2, 7]: significantly lower | Active form of TGF-β1 in lung homogenates [2, 8]: significantly reduced | Total MMP-9 levels in lung homogenates [2, 8]: tended to decrease the total MMP-9 levels, although no significant differences were observed | VEGF concentration in lung homogenates and BALF [2, 8]: significantly reduced | Subepithelial thickness (subepithelial fibrosis) ([3]; Azan-Mallory sections, Dp/IMD mice 10 mg/kg i.p.): significantly decreased | Vascular density (CD31-positive blood vessels) ([3]; CD31 immunohistochemistry, 10 mg/kg i.p.): significantly decreased | Number of infiltrating eosinophils in the subepithelium ([3]; Giemsa-stained lung sections, 10 mg/kg i.p., vs Dp/CMC mice): significantly decreased | Number of PAS-positive cells (mucous metaplasia) ([3]; PAS staining of lungs, 10 mg/kg i.p., vs Dp/CMC mice): decreased | Subepithelial smooth muscle thickness ([3]; α-SMA immunohistochemistry, 10 mg/kg i.p.): significant reduction | Total collagen in the lungs [4]: reduced | Adverse effects in the mouse model ([5]; chronic Dp model): could not find any adverse effects | Changes in body weight ([5]; Dp-sensitized mice): did not show any weight loss
